pEC50: −log10 of the molar value.
Legend:
Vero = experiment: Compound was tested for its antiviral activity against HSV-1(KOS strain) in vero cells; type: functional, cell-based; conditions: Chlorocebus sabaeus
[1] = Half life was measured at pH 7.4 and at 37 degree Celsius temperature; type: ADME
Mus musculus = experiment: Compound was tested to determine the total amount of penciclovir recovered in the urine over a 48-h period after a single oral dose of 0.2 mmol/kg.; type: functional
[2] = Half life was measured at pH 8.0 and at 37 degree Celsius temperature; type: ADME
[3] = Half life was measured […] at 37 degree Celsius temperature by HPLC assay using a c18 reversed-phase column.; type: ADME
[4] = Half life was measured at pH 1.0 and at 37 degree Celsius temperature; type: ADME

| half-life [1] | half-life [2] | half-life [3] | half-life [4] | SMILES | pEC50 (Vero) | Dose (urinary recovery) (Mus musculus) |
| --- | --- | --- | --- | --- | --- | --- |
| 1490 min | 1150 min | 4.38 days | 1160 min | CCC(C)[C@H](N)C(=O)OCC(CCn1cnc2c(O)nc(N)nc21)COC(C)=O.Cl (some centres undefined) | < 4.00 | 15% |
| 1040 min | 816 min | 4.31 days | 1150 min | CCC(=O)OCC(CCn1cnc2c(O)nc(N)nc21)COC(=O)[C@@H](N)C(C)C.Cl (some centres undefined) | < 4.00 | 25% |
| 1490 min | 1160 min | 3.48 days | 2790 min | CCC(C)[C@H](N)C(=O)OCC(CCn1cnc2c(O)nc(N)nc21)COC(=O)C(C)C.Cl (some centres undefined) | < 4.00 | 13% |
| 1620 min | 1190 min | 3.9 days | 2040 min | CCCC(=O)OCC(CCn1cnc2c(O)nc(N)nc21)COC(=O)[C@@H](N)C(C)CC.Cl (some centres undefined) | 4.62 | 19% |
| 1500 min | 1190 min | 3.48 days | 1140 min | CCC(=O)OCC(CCn1cnc2c(O)nc(N)nc21)COC(=O)[C@@H](N)C(C)CC.Cl (some centres undefined) | < 4.00 | 20% |

The next lines start with the compound.

| SMILES | half-life [1] | half-life [2] | half-life [3] | half-life [4] | pEC50 (Vero) | Dose (urinary recovery) (Mus musculus) |
| --- | --- | --- | --- | --- | --- | --- |
| CCCC(=O)OCC(CCn1cnc2c(O)nc(N)nc21)COC(=O)[C@@H](N)C(C)C.Cl (some centres undefined) | 1100 min | 846 min | 5.07 days | 2000 min | 4.38 | 29% |
| CC(C)C(=O)OCC(CCn1cnc2c(O)nc(N)nc21)COC(=O)[C@@H](N)C(C)C.Cl (some centres undefined) | 1150 min | 864 min | 4.98 days | 2850 min | < 4.00 | 20% |
| CCC(C)[C@H](N)C(=O)OCC(CCn1cnc2c(O)nc(N)nc21)COC(=O)[C@@H](N)C(C)CC.Cl.Cl (some centres undefined) | 684 min | 588 min | 2.2 days | > 10100 min | 4.37 | 9% |
| CC(C)[C@H](N)C(=O)OCC(CCn1cnc2c(O)nc(N)nc21)COC(=O)[C@@H](N)C(C)C.Cl.Cl | 402 min | 360 min | 1.29 days | > 10100 min | 4.59 | 25% |
| CC(=O)OCC(CCn1cnc2c(O)nc(N)nc21)COC(=O)[C@@H](N)C(C)C.Cl (some centres undefined) | 792 min | 792 min | 4.51 days | 1160 min | < 4.00 | 34% |
| CC(=O)OCC(CCn1cnc2cnc(N)nc21)COC(C)=O [FAMCICLOVIR] | – | – | – | – | < 4.00 | 33% |
| Nc1nc(O)c2ncn(CCC(CO)CO)c2n1 [PENCICLOVIR] | – | – | – | – | 5.09 | 9% |

Source: ChEMBL document CHEMBL1129136, “Synthesis and evaluation of amino acid ester prodrugs of penciclovir” (Bioorg Med Chem Lett, 1996)
